Patent publication US7253177B2, “Synthesis and antimalarial activity of pyrrolo[3,2-f]quinazoline-1,3-diamine derivatives” (United States of America as Represented by the Secretary of …, priority 2004, dated 2007)
In brackets after ≈: the same amount, converted by molar mass. Several values for one entry are separate records, joined by “and”; a condition that tells them apart may be missing. Equal values may be shown once.

Assays:
[1] = tested on: P. vivax AMRU-1 strain; assay: Antimalarial activity against P. vivax in Aotus monkey; format: in vivo, Plasmodium vivax; details: for # Monkey Cured/# Monkey Used, P. vivax: cured = parasitemia free for 100 days post treatment; for outcome against P. vivax at 1 and 3 mg/kg/day x3: po, antifolate-resistant clone with four DHFR mutations
Protocol: (e). Toxicity Study in Aotus monkey: Protocol: Two malaria double cured Aotus weighing 1027-695 grams respectively received single dose of 3 mg/kg orally of the two compounds 2b and 3e. The monkeys were weighed and pre-bleed for CBC and Chemistry (ALT, BUN, Creatinine) determination, and again three, seven and 15 days post treatment. Signs of toxicity such as anorexia, vomiting, diarrhea or behavior changes were recorded. […] (f). Antimalarial Activity against P. falciparum in Aotus monkey: Protocol: Six (6) malaria naive Aotus lemurinus lemurinus (weigh 787-978 grms) were divided into two groups of two Aotus each plus two controls (MN13177 male and MN 13153 male) and infected with 5×10^6 P. falciparum FVO malaria parasites with 1 ml of an appropriate dilution in RPMI media intravenously on the saphenous vein. When their parasitemia reached 5×10^4 parasites/ul, treatment was started. Giemsa-stained thick blood smears were prepared daily with a prick in the ear marginal vein and parasites enumerated by the Earle and Perez method. Group 1 Aotus received 3e at 1 mg/kg once a day×three days. Group 2 Aotus received 2b at 1 mg/kg once a day×three days. The monkeys were weight and pre-bled for CBC and Chemistry (ALT, BUN, Creatinine) determination, and on day 4 post-treatmetne (PT). Bleedings for Pk determinations were carried out on day 1 PT at time 0, 1 hr, 7:30 hr and 24 hr PT. Group 1 (receiving 3e) animals cleared the parasitemias on day 3 post treatment (PT) and remained negative up to 100 days PT. In group 2 (receiving 2b), one animal cleared on day 3 PT and the other one on day 4 PT remaining negative up to 100 days PT. […] (g). Antimalarial Activity against P. vivax in Aotus monkey: Protocol: Fourteen (14) P. falciparum cured Aotus l. lemurinus monkeys (male and female) (weight 700-925 grms) were infected intravenously with 5×10^6 parasites of the P. vivax AMRU-1 strain diluted in RPMI media obtained from a donor and divided into two larger groups of 6 monkeys each (Group I and Group II) (2 monkeys per dose level), that received 3e and 6 monkeys (2 monkeys per dose level) that received 2b daily at 0.5, 1.0 and 3 mg/kg/day for a total of 3 days. Two monkeys were left has untreated controls. Treatment started when parasitemia reached 5,000 parasites×cc/mm on day 6 PI. Daily food intake was documented. Daily Giemsa-stained thick blood smears were prepared from a prick in the marginal ear vein and parasites enumerated by the Earle and Perez method. The animals were weighed at weekly intervals. Blood samples for Pk determination were collected at the following time points as follows: Day 0: CBC and chemistry panel (ALT. Creatinine and BUN); Day 4: CBC and chemistry Panel. CBC and chemistry panels were done the day prior to first dose and 24 hours after last dose and at weekly intervals thereafter. […] The other monkeys received 1 and 3 mg/kg of 3e remained negative until day 100 PT. In Group II, all monkeys except for one that received 3 mg/kg of 2b failed treatment and were retreated on day 3 PT with 3e at either 0.25, 0.5 or 1 mg/kg for three days. In the monkeys that received re-treatment at 0.25 mg/kg, one cleared on day 4 PT but needed to be treated with Mefloquine on day 8 PT due to a low platelet count. The other animals that had not been cleared by day 6 PT were treated with Mefloquine. […] P. vivax is known to be very drug resistant to antifolates. (h). Presumptive Causal Prophylactic Test against P. cynomolgi in Rhesus monkey: Protocol: […]

[2] = tested on: Plasmodium falciparum TM91C235 (Southeast Asia Isolates); assay: In vitro antimalarial study, [3H]hypoxanthine uptake, TM91C235 clone; format: cell-based
Protocol: B. Antimalarial Activities: (a). In Vitro Antimalarial Studies. The in vitro assays were conducted by using a modification of the semiautomated microdilution technique of Desjardins et al and Chulay et al.. Four P. falciparum malaria parasite clones, from CDC Indochina III (W-2), CDC Sierra Leone I (D-6), Southeast Asia Isolates (TM91C235) and RCS (Isolates from Brazil) were utilized in susceptibility testing. They were derived by direct visualization and micromanipulation from patient isolates. The W-2 clone is susceptible to mefloquine but resistant to chloroquine, sulfadoxine, pyrimethamine, and quinine, whereas the D-6 clone is naturally resistant to mefloquine but susceptible to chloroquine, sulfadoxine, pyrimethamine and quinine. Test compounds were initially dissolved in DMSO and diluted 400 fold in RPMI 1640 culture medium supplemented with 25 mM Hepes, 32 mM NaHCO3 and 10% Albumax I (Gibco BRL, Grand Island, N.Y.). These solutions were subsequently serially diluted two-fold with a Biomek 1000 (Beckman, Fullerton, Calif.) over 11 different concentrations. The parasites were exposed to serial dilutions of each compound for 48 hrs and incubated at 37° C. with 5% O2, 5% CO2 and 90% N2 prior to the addition of [^3H]hypoxanthine. After a further incubation of 18 hrs, parasite DNA was harvested from each microtiter well using Packard Filtermate 196 Harvester (Meriden, Conn.) onto glass filters. Uptake of [^3H]hypoxanthine was measured with a Packard Topcount Scintillation. Concentration-response data were analyzed by a non-linear regression logistic dose response model and the IC50 values (50% inhibitory concentrations) for each compound were calculated. (Table 3). (b). In Vivo Antimalarial Studies against P. berghei in mice: The in vivo efficacy of the artelinic acid analogs were determined in a modified Thompson test. This test measures the survivability of mice and parasitemia clearance following administration of drug on days 3-5 post infection. In brief, 5×10^6 P. berghei-infected erythrocytes (KBG-173 strain) were inoculated intraperitoneally to female mice that weighed 24-30 g. By day three post-infection, parasitemia ranged from 1.0-3.7%. Each drug, dissolved in 5% sodium bicarbonate, was administered PO twice daily from day 3-5 post-infection. Total doses for each drug ranged from 1.5-384 mg/kg with 8 mice included in each dosage group. The percent suppression of parasitemia in the treated mice compared to the untreated controls was determined for each test compound; the SD-50 (fifty percent suppression dose) and SD-90 were determined from a non-linear regression logistic dose response fit at day 6 parasitemia data. Survival of mice to day 60 post-infection was considered a cure (C). Compounds were considered active (A) when the survival time of the treated mice was greater than twice the control mice, i.e., 12-14 day (Table 4-5). (c). Sporozoite Induced Test Each compound is ground with a mortar & pestle and suspended in 0.5% hydroxyethylcellulose—0.1% Tween 80 for compounds to be administered PO and those given SC are suspended in peanut oil. Each compound is prepared at 3 different dose levels as requested by WRAIR. Compounds are administered either PO or SC to mice once 4 hr before inoculation of sporozoites. Four-week-old male CD-1 mice, purchased from Charles River and weighing 16-17 g, are placed 5 per cage and allowed to acclimate for 4 days before being treated and then inoculated with sporozoites. They are fed food and water ad-lib and maintained at 76° F. with 12 hr light and 12 hr darkness. The cages and water bottles are changed biweekly. The mice are weighed on Days 0, 3 and 6 then biweekly when blood films are taken. Plasmodium yoelii (17×) is used to infect mice that will be used to infect the mosquitoes. Mice are given a single dose of test compound 4 hr before being inoculated intraperitoneally with 2.5×10^5 sporozoites of Plasmodium yoelii on Day 0. […]

`CCOC(=O)Nc1nc(NC(=O)OCC)c2c(ccc3c2ccn3Cc2ccccc2C(F)(F)F)n1` [Compound 2b] was tested, and the “activity against P. vivax at 0.5 and 1 mg/kg x3” value [1] was “not active”, the “# Monkey Cured/# Monkey Used, P. vivax” value ([1]; 0.5 mg/kg/day x 3 days) was 0/2 and the “# Monkey Cured/# Monkey Used, P. vivax” value ([1]; 1 mg/kg/day x 3 days) was 0/2. The “# Monkey Cured/# Monkey Used, P. vivax” value ([1]; 3 mg/kg/day x 3 days, 3 mg/kg/day) was “one out of two and 1/2”, the “outcome against P. vivax at 1 and 3 mg/kg/day x3” value [1] was “less active” and the “IC50 TM91C235” value ([2]; P. falciparum TM91C235 clone) was >250 ng/mL.

For `CC(=O)N(C(C)=O)c1nc(N(C(C)=O)C(C)=O)c2c(ccc3c2ccn3Cc2ccccc2C(F)(F)F)n1` [Compound 3e, 1,3-Bis(diacetylamino)-7-(2-trifluoromethyl)benzyl-7H-pyrrolo[3,2-f]quinazoline], the “# Monkey Cured/# Monkey Used, P. vivax” value ([1]; 0.5 mg/kg/day x 3 days) was 0/2, the “outcome against P. vivax at 0.5 mg/kg” value ([1]; 0.5 mg/kg/day x 3 days, two monkeys) was “suppressed the parasitemia but needed re-treatment on day 10 PT” and the “# Monkey Cured/# Monkey Used, P. vivax” value ([1]; 1 mg/kg/day x 3 days) was 2/2. For the same compound, the “# Monkey Cured/# Monkey Used, P. vivax” value ([1]; 3 mg/kg/day x 3 days) was 2/2, the “remained negative until day PT” value ([1]; P. vivax, 1 and 3 mg/kg x 3 days) was 100 days and the “outcome against P. vivax at 1 and 3 mg/kg/day x3” value [1] was “cured and 4/4”. For the same compound, the IC50 ([2]; Plasmodium falciparum, read-out: IC50 TM91C235) was 0.0845 ng/mL (≈ 0.161 nM).
